System: 313798-341-R-J2-PDC spheroids, viability
Assay: Anticancer human tumor 313798-341-R-J2-PDC patient-derived cervical squamous cell carcinoma cell line growth inhibition [PI3K]
Conditions: spheroids with HUVEC and MSC; for IC50: curve of first compound; for viability, T/C: stronger effect = lower value; active = viability on the fitted dose curve at most 10% of control; inactive = the rest
How it was run: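 High-throughput combination screen: PI3K inhibitors crossed with targeted small molecules on complex spheroids of tumor cells, HUVEC and MSCs at 37 degrees C, 5% CO2. Top concentration was at or near clinical Cmax (otherwise 10 microM), with half-log decrements.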

[1] = second compound 0.0316 µM, first compound 0.000316 µM
[2] = second compound 0.0316 µM, first compound 0.001 µM
[3] = second compound 0.0316 µM, first compound 0.00316 µM
[4] = second compound 0.0316 µM, first compound 0.01 µM
[5] = second compound 0.0316 µM, first compound 0.0316 µM
[6] = second compound 0.0316 µM, first compound 0.1 µM
[7] = second compound 0.1 µM, first compound 0.000316 µM
[8] = second compound 0.1 µM, first compound 0.001 µM
[9] = second compound 0.1 µM, first compound 0.00316 µM
[10] = second compound 0.1 µM, first compound 0.01 µM
[11] = second compound 0.1 µM, first compound 0.0316 µM
[12] = second compound 0.1 µM, first compound 0.1 µM
[13] = second compound 0.316 µM, first compound 0.000316 µM
[14] = second compound 0.316 µM, first compound 0.001 µM
[15] = second compound 0.316 µM, first compound 0.00316 µM
[16] = second compound 0.316 µM, first compound 0.01 µM
[17] = second compound 0.316 µM, first compound 0.0316 µM
[18] = second compound 0.316 µM, first compound 0.1 µM
[19] = second compound 1 µM, first compound 0.000316 µM
[20] = second compound 1 µM, first compound 0.001 µM
[21] = second compound 1 µM, first compound 0.00316 µM
[22] = second compound 1 µM, first compound 0.01 µM
[23] = second compound 1 µM, first compound 0.0316 µM
[24] = second compound 1 µM, first compound 0.1 µM
[25] = second compound 3.16 µM, first compound 0.0316 µM
[26] = second compound 3.16 µM, first compound 0.1 µM
[27] = second compound 10 µM, first compound 0.0316 µM
[28] = second compound 10 µM, first compound 0.1 µM
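Also: spheroids exposed to compounds for seven days.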
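For viability, T/C in this document: 100% = DMSO vehicle control viability.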

CC(=O)c1c(C)c2cnc(Nc3ccc(N4CCNCC4)cn3)nc2n(C2CCCC2)c1=O + Cc1nc(NC(=O)N2CCCC2C(N)=O)sc1-c1ccnc(C(C)(C)C(F)(F)F)c1
< 0.316 nM: IC50 (second compound 10 µM)
> 100 nM: IC50 (second compound 0.0316 µM) | IC50 (second compound 0.1 µM) | IC50 (second compound 0.316 µM) | IC50 (second compound 1 µM) | IC50 (second compound 3.16 µM)
inactive: viability, T/C [1] 105% | viability, T/C [2] 96.5% | viability, T/C [3] 110% | viability, T/C [4] 105% | viability, T/C [5] 108% | viability, T/C [6] 111% | viability, T/C [7] 108% | viability, T/C [8] 99.1% | viability, T/C [9] 107% | viability, T/C [10] 107% | viability, T/C [11] 123% | viability, T/C [12] 110% | viability, T/C [13] 110% | viability, T/C [14] 101% | viability, T/C [15] 96.3% | viability, T/C [16] 108% | viability, T/C [17] 104% | viability, T/C [18] 115% | viability, T/C [19] 95.2% | viability, T/C [20] 98.1% | viability, T/C [21] 96% | viability, T/C [22] 98.7% | viability, T/C [23] 104% | viability, T/C [24] 102% | viability, T/C (second compound 3.16 µM, first compound 0.000316 µM) 68.3% | viability, T/C (second compound 3.16 µM, first compound 0.001 µM) 58.9% | viability, T/C (second compound 3.16 µM, first compound 0.00316 µM) 71.8% | viability, T/C (second compound 3.16 µM, first compound 0.01 µM) 69.4% | viability, T/C [25] 58.4% | viability, T/C [26] 79% | viability, T/C (second compound 10 µM, first compound 0.000316 µM) 40.4% | viability, T/C (second compound 10 µM, first compound 0.001 µM) 41.7% | viability, T/C (second compound 10 µM, first compound 0.00316 µM) 39.5% | viability, T/C (second compound 10 µM, first compound 0.01 µM) 33% | viability, T/C [27] 41.4% | viability, T/C [28] 36.4%

Cn1nccc1Nc1nccc(-c2ccn(C(CO)c3ccc(Cl)c(F)c3)c(=O)c2)n1 (stereo unspecified) + Cc1nc(NC(=O)N2CCCC2C(N)=O)sc1-c1ccnc(C(C)(C)C(F)(F)F)c1
5980 nM: IC50 (second compound 3.16 µM)
< 31.6 nM: IC50 (second compound 10 µM)
inactive: viability, T/C [5] 102% | viability, T/C [6] 90% | viability, T/C (second compound 0.0316 µM, first compound 0.316 µM) 92.9% | viability, T/C (second compound 0.0316 µM, first compound 1 µM) 102% | viability, T/C (second compound 0.0316 µM, first compound 3.16 µM) 102% | viability, T/C (second compound 0.0316 µM, first compound 10 µM) 109% | viability, T/C [11] 95.7% | viability, T/C [12] 103% | viability, T/C (second compound 0.1 µM, first compound 0.316 µM) 99% | viability, T/C (second compound 0.1 µM, first compound 1 µM) 103% | viability, T/C (second compound 0.1 µM, first compound 3.16 µM) 113% | viability, T/C (second compound 0.1 µM, first compound 10 µM) 106% | viability, T/C [17] 97.4% | viability, T/C [18] 102% | viability, T/C (second compound 0.316 µM, first compound 0.316 µM) 103% | viability, T/C (second compound 0.316 µM, first compound 1 µM) 98.8% | viability, T/C (second compound 0.316 µM, first compound 3.16 µM) 109% | viability, T/C (second compound 0.316 µM, first compound 10 µM) 103% | viability, T/C [23] 88.8% | viability, T/C [24] 81.3% | viability, T/C (second compound 1 µM, first compound 0.316 µM) 91.9% | viability, T/C (second compound 1 µM, first compound 1 µM) 90.4% | viability, T/C (second compound 1 µM, first compound 3.16 µM) 89.4% | viability, T/C (second compound 1 µM, first compound 10 µM) 71.3% | viability, T/C [25] 57.9% | viability, T/C [26] 60.4% | viability, T/C (second compound 3.16 µM, first compound 0.316 µM) 55.7% | viability, T/C (second compound 3.16 µM, first compound 1 µM) 56.5% | viability, T/C (second compound 3.16 µM, first compound 3.16 µM) 52.9% | viability, T/C (second compound 3.16 µM, first compound 10 µM) 45.4% | viability, T/C [27] 35.4% | viability, T/C [28] 22.1% | viability, T/C (second compound 10 µM, first compound 0.316 µM) 31.6% | viability, T/C (second compound 10 µM, first compound 1 µM) 26.8% | viability, T/C (second compound 10 µM, first compound 3.16 µM) 29.2% | viability, T/C (second compound 10 µM, first compound 10 µM) 24.1%
> 10000 nM: IC50 (second compound 0.0316 µM) | IC50 (second compound 0.1 µM) | IC50 (second compound 0.316 µM) | IC50 (second compound 1 µM)

CC(C)n1nc(-c2ccc3oc(N)nc3c2)c2c(N)ncnc21 + CC(Nc1ccc2c(c1)OCCn1cc(N3C(=O)OCC3C(F)F)nc1-2)C(N)=O
14.2 nM: IC50 (second compound 0.316 µM)
28.2 nM: IC50 (second compound 0.1 µM)
48.8 nM: IC50 (second compound 0.0316 µM)
66.3 nM: IC50 (second compound 0.01 µM)
inactive: viability, T/C (second compound 0.00316 µM, first compound 0.000316 µM) 90.9% | viability, T/C (second compound 0.00316 µM, first compound 0.001 µM) 99% | viability, T/C (second compound 0.00316 µM, first compound 0.00316 µM) 119% | viability, T/C (second compound 0.00316 µM, first compound 0.01 µM) 92.8% | viability, T/C (second compound 0.00316 µM, first compound 0.0316 µM) 78% | viability, T/C (second compound 0.00316 µM, first compound 0.1 µM) 37.8% | viability, T/C (second compound 0.01 µM, first compound 0.000316 µM) 83.8% | viability, T/C (second compound 0.01 µM, first compound 0.001 µM) 90.4% | viability, T/C (second compound 0.01 µM, first compound 0.00316 µM) 100% | viability, T/C (second compound 0.01 µM, first compound 0.01 µM) 103% | viability, T/C (second compound 0.01 µM, first compound 0.0316 µM) 73.2% | viability, T/C (second compound 0.01 µM, first compound 0.1 µM) 37.2% | viability, T/C [1] 94.6% | viability, T/C [2] 92.3% | viability, T/C [3] 92.1% | viability, T/C [4] 92.6% | viability, T/C [5] 60.6% | viability, T/C [6] 32.4% | viability, T/C [7] 95.6% | viability, T/C [8] 97.4% | viability, T/C [9] 92.2% | viability, T/C [10] 69.3% | viability, T/C [11] 49.6% | viability, T/C [12] 33.2% | viability, T/C [13] 83.4% | viability, T/C [14] 70.9% | viability, T/C [15] 64.8% | viability, T/C [16] 54.7% | viability, T/C [17] 43.5% | viability, T/C [18] 25.1% | viability, T/C [19] 55.3% | viability, T/C [20] 53.1% | viability, T/C [21] 45% | viability, T/C [22] 42.1% | viability, T/C [23] 32.9% | viability, T/C [24] 14.3%
1.85 nM: IC50 (second compound 1 µM)
70.2 nM: IC50 (second compound 0.00316 µM)

Reference: PubChem BioAssay AID1963982 (Molecular Pharmacology Branch, DTP, NCI, 2024)
